Measurements reported in ChEMBL document CHEMBL1140370, “Molecular modeling and molecular dynamics simulation of the human A2B adenosine receptor. The study of the possible binding modes of the A2B receptor antagonists” (J Med Chem, 2005).

Target: T1, Adenosine receptor A2b (Homo sapiens, UniProt P29275)
T1 sequence (P29275 whole entry): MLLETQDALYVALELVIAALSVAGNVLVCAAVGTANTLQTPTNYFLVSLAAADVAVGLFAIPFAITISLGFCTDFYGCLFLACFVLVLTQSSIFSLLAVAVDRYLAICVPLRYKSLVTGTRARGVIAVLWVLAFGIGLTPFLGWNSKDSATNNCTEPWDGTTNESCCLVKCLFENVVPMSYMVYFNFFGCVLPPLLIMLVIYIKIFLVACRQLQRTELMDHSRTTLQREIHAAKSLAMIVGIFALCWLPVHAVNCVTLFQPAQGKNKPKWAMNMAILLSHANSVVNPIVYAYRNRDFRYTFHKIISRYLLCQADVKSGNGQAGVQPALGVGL
Experiment: Antagonist activity against human Adenosine A2b receptor
Assay type: functional

Ki [µM] | Structure (SMILES)
0.018 | CCCn1c(=O)c2[nH]c(-c3cc(OCC(=O)O)no3)nc2n(CCC)c1=O
0.0048 | CCCn1c(=O)c2[nH]c(-c3ccc(OCC(=O)Nc4ccc(F)cc4)nc3)nc2n(CCC)c1=O
